Measured values reported in US20020052316A1, “Bax-mediated apoptosis modulating reagents and methods” (priority 1998, published 2002).
Residues, ends and D or L forms follow the SMILES beside them. *: point of attachment. Cbz = O=C(OCc1ccccc1)*; CH2F = FC*

How the values were obtained:
[1] = tested on: intact mitochondria isolated from rat heart; assay: Mitochondrial protein targeting in vitro (35S-labelled reticulocyte lysate translation products, alkali-resistant insertion); type: biochemical; set-up: BAX targeting supported by apoptotic high speed cytosol / mitochondrial membrane insertion of BAX with additional cytochrome c: dose or concentration left out as unconfirmed
Excerpt: To examine targeting of BAX into mitochondria in vitro, we employed the ^35S-labelled transcription-translation product of BAX cDNA in rabbit reticulocyte lysate combined with intact mitochondria isolated from rat heart. This is a well documented system that faithfully reflects in vivo import of diverse mitochondrial proteins, including the insertion of integral proteins into the mitochondrial outer membrane (Li and Shore, Science 256:1815-1817, 1992; McBride et al., J. Cell Biol. 119:1451-1457, 1992).
The results of our investigation as to whether or not apoptotic cell extract supports BAX targeting to mitochondria in vitro are presented in FIGS. 3A-3D. Briefly, in the experiments were conducted as follows. In FIG. 3A, ^35S-labeled transcription-translation products of BAX cDNA in rabbit reticulocyte lysate (BAX and BAXΔART) were incubated with purified, intact mitochondria from rat heart in a standard protein import reaction supplemented with 1 mM dATP (FIG. 3A, lanes 3, 4, 6, and 7) or 1 mM dATP and […] apoptotic cytosol protein (Extract) (FIG. 3A, lanes 4 and 7), in a volume of […]. At the end of the reaction, mitochondria were recovered by centrifugation and the pellets analyzed by SDS PAGE and fluorography either directly or after extraction with […], pH 11.5 (Alkali) (FIG. 3A, lanes 5-7).
The heart of one male Sprague Dawley rat (approximately 250 grams) was placed in approximately 100 ml HIM buffer (0.2% w/v BSA, 200 mM mannitol, 70 mM sucrose, 10 mM HEPES-KOH, 1 mM EGTA, pH 7.5) on ice, squeezed several times to force out blood, and transferred to 7.5 ml HIM in a 15-ml corex tube. All subsequent steps were conducted at 4° C. The heart was homogenized with a Polytron homogenizer (Brinkmann Instruments Inc., Westbury, N.Y.) operating for 1 second at setting 6.5. Nuclei and unbroken cells were pelleted at 1800 rpm for 10 min. in a Sorvall SS34 rotor. The supernatant was centrifuged for 10 min. at 7000 rpm. The resulting pellet was resuspended in HIM (minus BSA), centrifuged at 1800 rpm and the mitochondria were collected at 7000 rpm. The mitochondrial pellet was resuspended in cMRM (250 mM sucrose, 10 mM HEPES-KOH, 1 mM ATP, 5 mM Na Succinate, 0.08 mM ADP, 2 mM K2HPO4, pH 7.5) at a concentration of 1 mg of mitochondrial protein per ml, and adjusted to 1 mM dithiothreitol just before use.
cDNAs were transcribed and translated in the presence of ^35S-methionine in a cell-free rabbit reticulocyte lysate system (Promega Corp., Madison, Wis.) according to the manufacturer's directions. For a standard mitochondrial protein import reaction, 5 μl of translation reaction was incubated with 20 μl of Buffer A (20 mM HEPES-KOH, 10 mM KCl, 2.5 mM MgCl2, 1 mM EDTA, 1 mM EGTA, 1 mM dithiothreitol, pH 7.5) and 25 μl mitochondria or mitoplasts in cMRM (1 mg protein / ml) at 30° C or 37° C. for 30 min. to 2 hours. The import reaction was then layered on a 500 μl cushion of 1×MRM (250 mM sucrose, 10 mM HEPES-KOH, pH 7.5) and centrifuged for 4 min. at top speed in a microfuge at 4° C. For alkali extraction, the mitochondrial pellet was resuspended (0.25 mg protein / ml) in freshly prepared 0.1 M Na2CO3, pH 11.5, and incubated for 30 min. on ice. The membranes were then pelleted in an airfuge (commercially available from Beckman Instruments Canada Inc., Montreal, PQ, Canada) operating for 10 min. at 30 psi. The pellet was analyzed by SDS-PAGE and fluorography. […]

[2] = tested on: caspases of KB apoptotic cell extract (24 kDa PARP cleavage product); assay: Poly(ADP ribosyl) polymerase (PARP) cleavage by KB apoptotic cell extract; type: biochemical, human; set-up: ability of the extract to drive PARP cleavage: dose or concentration left out as unconfirmed
Method: In FIG. 3C, ^35S-labeled transcription-translation product of PARP cDNA in reticulocyte lysate (5% by volume) was incubated with (FIG. 3C, lanes 2 and 3) or without (FIG. 3C, lane 1) […] apoptotic cytosol protein in a total volume of […], in the presence (FIG. 3C, lane 3) or absence (FIG. 3C, lanes 1 and 2) of 1 mM dATP, and equivalent portions analyzed for the appearance of the 24 kDa cleavage product of poly(ADP ribosyl) polymerase (24 K PARP) by 12% SDS PAGE and fluorography.
Extract was prepared at 4° C. according to the procedure of Liu et al. (supra) with some minor modifications. Briefly, human KB epithelial cells were harvested in PBS containing 1.3 mM Na citrate and 0.6 mM EDTA. The cell pellet was washed in Buffer A/ext (50 mM PIPES, 50 mM KCl, 5 mM EGTA, 2 mM MgCl2, 1 mM dithiothreitol, 20 μM cytochalasin B, pH 7.4), then resuspended in an equal volume of Buffer A/ext. The cells were disrupted by 5 cycles of freeze-thaw interspersed by 5 strokes with a Wheaton glass homogenizer fitted with a B pestle, and centrifuged at […] for 1 hour in a Beckman Ti75 rotor. The resulting supernatant contained 10 mg protein / ml. […]

FL5.12 cells = assay: BAX integration into mitochondrial membrane of FL5.12 cells after IL-3 withdrawal (alkali extraction, anti-BAX Western blot); type: cell-based; details: FL5.12 cells deprived of IL-3 for 12 hours, 50 mM zVAD-fmk
Method: In the absence of a death signal during apoptosis of a cell, BAX is found free in the cytosol of the cell or is peripherally associated with endocellular membrane surfaces. We performed a Western blotting analysis of mitochondrial membranes from FL5.12 cells, immunoblotting anti-BAX antibodies (antibodies commercially available from, for example, Santa Cruz Biotech., Santa Cruz, Calif.; FIG. 1). Briefly, the mitochondrial fraction was prepared from FL5.12 cells maintained in IL-3 (FIG. 1, lanes 1, 2, 5, and 6) or deprived of IL-3 for 12 hours (FIG. 1, lanes 3, 4, 7, and 8), in the absence (FIG. 1, lanes 1, 3, 5, and 7) or presence (FIG. 1, lanes 2, 4, 6, and 8) of […] zVAD-fmk for 12 hours by centrifuging at 200,000×g for 45 min. to yield supernatant and pellet fractions (the pellet fraction contains the mitochondrial membranes). The mitochondrial fractions were analyzed either directly (FIG. 1, lanes 1-4) or following extraction with 0.1 M Na2CO3, pH 11.5 (FIG. 1, lanes 5-8).
Cells were collected, washed twice with phosphate buffered saline, suspended in 2 ml HIM buffer (0.2% w/v BSA, 200 mM mannitol, 70 mM sucrose, 10 mM HEPES-KOH, 1 mM EGTA, pH 7.5), and subjected to homogenization with a Polytron homogenizer (Brinkmann Instruments Inc., Westbury, N.Y.) for 4 bursts of 10 seconds each at a setting of 6.5. All subsequent steps were conducted at 4° C. […]

COS-7 and CHO cells = assay: Immunofluorescence microscopy with anti-HA antibody of transfected cells; type: cell-based; details: 24 hours
Excerpt: Thus, the enhanced cytotoxicity of HA-BAXΔART compared to HA-BAX in vivo correlates with inhibition of BAX membrane integration by the ART domain in vitro.

[3] = zVAD-fmk added before dATP and incubation at 37° C.
[4] = extract depleted of cytochrome c by immunoadsorption

With `COC(=O)C[C@H](NC(=O)[C@H](C)NC(=O)[C@@H](NC(=O)OCc1ccccc1)C(C)C)C(=O)CF` [zVAD-fmk, reference compound] (Cbz-Val-Ala-Asp(OMe)-CH2F) the “BAX targeting supported by apoptotic high speed cytosol” value [1, 3] was “effectively inhibit”, the “ability of the extract to drive PARP cleavage” value [2, 3] was “abolished” and the “BAX integration into mitochondrial membrane in response to IL-3 withdrawal” value (FL5.12 cells; alkaline-resistant BAX) was “partly blocked”. The “recovery of total BAX associated with mitochondria” value (FL5.12 cells; no alkali extraction) was “did not significantly influence”.

“BAX: full length murine BAX proapoptotic protein, translated in rabbit reticulocyte lysate” was tested, and the “mitochondrial targeting / membrane integration in vitro” value ([1]; absence of apoptotic cell extract, resistance to extraction at alkaline pH) was “failed to target mitochondria”.

With “HA-BAX: hemagglutinin epitope tagged BAX expressed by transfection” the “cells expressing the HA-tagged protein” value (COS-7 and CHO cells) was 7.5%.

“cytochrome c: cytochrome c protein added to apoptotic cell extract or reticulocyte lysate” was tested, and the “mitochondrial membrane insertion of BAX with additional cytochrome c” value ([1]; cytochrome c added to apoptotic cytosol) was “No improvement”, the “BAX targeting after add-back to cytochrome c depleted extract” value [1, 4] was “re-instated” and the “BAX targeting with cytochrome c alone” value ([1]; reticulocyte lysate translation mixtures, no extract) was “failed to stimulate”. The “PARP cleavage after add-back to cytochrome c depleted extract” value [2, 4] was “re-instated”.
